Patent publication US11512079B2, “Heterocycle substituted pyridine derivative antifungal agents” (Amplyx Pharmaceuticals, Inc., priority 2017, dated 2022)
Values after ≈ are worked out from the molar mass of the structure shown. Structures can show the parent of a compound that is named as a salt.

Tests used:
Assay type in all cases: cell-based
[1] = system: Rhizomucor pusillus 46342; assay: In vitro antifungal assay (Example IX), microdilution broth, MEC; settings: minimum effective concentration (shortening of hyphae), 35° C., 40-48 h, RPMI1640
Description: (§1) Measurement of antifungal activity: […] Candida albicans 90028, Aspergillus fumigatus MYA3626, Rhizomucor pusillus 46342 and Cryptococcus neoformans […] strains were obtained from American Type Culture Collection (ATCC). […] (A. fumigatus) and 35° C. (R. pusillus). Water containing 1% Tween was directly added to the agar plate and gently agitated to wet and remove the Aspergillus conidia. For R. pusillus, water was added to the surface and gently massaged to wet and remove the spores. For both species, the conidia or spores and mycelial fragments were collected, followed by removal of mycelium, conidiophores and large clumps of conidia/spores. The resulting spore suspension was counted and diluted into RPMI1640 medium to adjust to a final suspension of 1-2×10^4 spores/mL. The suspension was used in the MEC measurement as described below. […] The compounds were weighed and DMSO was added to prepare a 10 mg/mL stock. The solutions were mixed by vortexing and sonication at 37° C. for 5-10 mins. The resulting solutions were sterile filtered using a PTFE filter, and aliquoted (12 μL or as needed) and stored at -20° C. Intermediate compound dilutions were prepared in sterile polypropylene tubes in 100% DMSO. […] This was validated by thorough mixing and reading at 600 nm on a microplate reader. The minimum concentration that led to shortening of hyphae as compared to hyphal growth in DMSO control wells was determined as the minimum effective concentration (MEC) for A. fumigatus and R. pusillus (as read for echinocandins). The use of the MIC and MEC endpoints against yeasts and molds, respectively has been described by Pfaller M A, Duncanson F, Messer S A, Moet G J, Jones […]. Antimicrob Agents Chemother. 2011. 55(11):5155-8. In vitro activity of a novel broad-spectrum antifungal, […], tested against Aspergillus spp. determined by CLSI and EUCAST broth microdilution methods. Results are shown in Table 2, and the letters indicate the following ranges in μg/mL: […]

[2] = system: Aspergillus fumigatus MYA3626; assay: as above; settings: minimum effective concentration (shortening of hyphae), 35° C., 40-48 h, RPMI1640
Description: as §1

Candida albicans 90028 = assay: In vitro antifungal assay (Example IX), microdilution broth, MIC; settings: minimum inhibitory concentration (≥50% inhibition), 35° C., 40-48 h, RPMI1640
Description: Measurement of antifungal activity: Antifungal activity of the compounds was evaluated in a microdilution broth assay as per Clinical and Laboratory Standard Institute methodology for yeast (for Candida and Cryptococcus) (1) and molds (for Aspergillus and Rhizomucor) (2). Candida albicans 90028, Aspergillus fumigatus MYA3626, Rhizomucor pusillus 46342 and Cryptococcus neoformans H99 strains were obtained from American Type Culture Collection (ATCC).
Preparation of Fungal Suspension. C. albicans 90028 and C. neoformans H99 strains were streaked from frozen stocks at −80° C. onto Sabouraud Dextrose Agar (SDA) plates. These were allowed to grow for 24 h (C. albicans) and 48 h (C. neoformans) at 35° C. before using them in the assay. 5-6 individual colonies were picked and diluted into sterile water to obtain a fungal suspension. The cell density of the suspension was determined and the culture diluted with RPMI1640 medium to obtain a fungal suspension of 2.5×10^3 cells/mL. The suspension was used in the MIC measurement as described below.
Preparation of Compound Stocks and Intermediate Dilutions: The compounds were weighed and DMSO was added to prepare a 10 mg/mL stock. The solutions were mixed by vortexing and sonication at 37° C. for 5-10 mins. The resulting solutions were sterile filtered using a PTFE filter, and aliquoted (12 μL or as needed) and stored at −20° C. Intermediate compound dilutions were prepared in sterile polypropylene tubes in 100% DMSO. The compound stock solution was first diluted in DMSO to obtain a concentration of […] to 0.19 μg/mL.
MIC/MEC Measurement: 99 μL 1 of the fungal suspension in RPMI1640 prepared as above was added to each well of a 96-well round bottom assay plate. 1 μL of the intermediate compound dilutions (200-0.19 μg/mL) were added to wells of the plate. This led to a 100-fold dilution of the intermediate dilutions resulting in a final compound concentration of 2-0.0019 μg/mL in the plate. 1 μL of DMSO was added to “No drug” control wells. The solutions were mixed by shaking on a plate shaker for 10 mins and plates incubated at 35° C. for 40-48 h (C. albicans, A. fumigatus, R. pusillus) and 72 h (Cryptococcus). […] This was validated by thorough mixing and reading at 600 nm on a microplate reader. The minimum concentration that led to shortening of hyphae as compared to hyphal growth in DMSO control wells was determined as the minimum effective concentration (MEC) for A. fumigatus and R. pusillus (as read for echinocandins). The use of the MIC and MEC endpoints against yeasts and molds, respectively has been described by Pfaller M A, Duncanson F, Messer S A, Moet G J, Jones R N, Castanheira M. Antimicrob Agents Chemother. 2011. 55(11):5155-8. In vitro activity of a novel broad-spectrum antifungal, E1210, tested against Aspergillus spp. determined by CLSI and EUCAST broth microdilution methods. Results are shown in Table 2, and the letters indicate the following ranges in μg/mL: […]

Compound | MIC (Candida albicans 90028) [µg/mL] | minimal effective concentration [1] [µg/mL] | minimal effective concentration [2] [µg/mL]
Cc1occc1COc1ccc(Cc2cc(-c3cccnc3N)on2)cn1 [compound 52, 3-(3-((6-((2-methylfuran-3-yl)methoxy)pyridin-3-yl)methyl)isoxazol-5-yl)pyridin-2-amine] | 0.1 to 1 (≈ 0.276 to 2.76 µM) | > 1 | 0.1 to 1
CC(Oc1ccc(Cc2cc(-c3cccnc3N)on2)cn1)c1ccccc1F (stereo not drawn) [compound 56, 3-(3-((6-(1-(2-fluorophenyl)ethoxy)pyridin-3-yl)methyl)isoxazol-5-yl)pyridin-2-amine] | 0.1 to 1 (≈ 0.256 to 2.56 µM) | > 1 | 0.1 to 1
Nc1ncccc1-c1cc(Cc2ccc(Nc3cccc(F)c3)nc2)no1 [compound 59, 5-((5-(2-aminopyridin-3-yl)isoxazol-3-yl)methyl)-N-(3-fluorophenyl)pyridin-2-amine] | 0.1 to 1 (≈ 0.277 to 2.77 µM) | > 1 | 0.1 to 1
c1ccc(Sc2ccc(Cn3cc(-c4cccnc4)cn3)cn2)cc1 [compound 66, 2-(phenylthio)-5-((4-(pyridin-3-yl)-1H-pyrazol-1-yl)methyl)pyridine] | 0.1 to 1 (≈ 0.29 to 2.9 µM) | > 1 | 0.1 to 1
Nc1ncccc1-c1cnn(Cc2ccc(Sc3ccccc3)nc2)c1 [compound 67, 3-(1-((6-(phenylthio)pyridin-3-yl)methyl)-1H-pyrazol-4-yl)pyridin-2-amine] | 0.1 to 1 (≈ 0.278 to 2.78 µM) | > 1 | 0.1 to 1
Nc1ccc(-c2cnn(Cc3ccc(OCc4ccccc4)nc3)c2)cn1 [compound 68, 5-(1-((6-(benzyloxy)pyridin-3-yl)methyl)-1H-pyrazol-4-yl)pyridin-2-amine] | 0.1 to 1 (≈ 0.28 to 2.8 µM) | > 1 | 0.1 to 1
CC1=C(Oc2ccc(Cc3cc(-c4cccnc4N)on3)cn2)C(=O)C(C)O1 (stereo not drawn) [compound 71, 4-((5-((5-(2-aminopyridin-3-yl)isoxazol-3-yl)methyl)pyridin-2-yl)oxy)-2,5-dimethylfuran-3(2H)-one] | > 1 | > 1 | > 1
Nc1ncccc1-c1cc(Cc2ccc(OCc3cccc(Cl)c3)nc2)no1 [compound 85, 3-(3-((6-((3-chlorobenzyl)oxy)pyridin-3-yl)methyl)isoxazol-5-yl)pyridin-2-amine] | 0.01 to 0.1 (≈ 0.0255 to 0.255 µM) | 0.1 to 1 | 0.01 to 0.1
Nc1ncccc1-c1cc(Cc2ccnc(OCc3cccc(F)c3)c2)no1 [compound 86, 3-(3-((2-((3-fluorobenzyl)oxy)pyridin-4-yl)methyl)isoxazol-5-yl)pyridin-2-amine] | 0.01 to 0.1 (≈ 0.0266 to 0.266 µM) | > 1 | 0.01 to 0.1
Nc1ncccc1-c1cc(Cc2ccc(OCc3cc(F)cc(Cl)c3)nc2)no1 [compound 87, 3-(3-((6-((3-chloro-5-fluorobenzyl)oxy)pyridin-3-yl)methyl)isoxazol-5-yl)pyridin-2-amine] | 0.1 to 1 (≈ 0.243 to 2.43 µM) | > 1 | 0.01 to 0.1
Nc1ncccc1-c1cc(Cc2ccnc(Oc3ccccc3)c2)no1 [compound 88] | 0.1 to 1 (≈ 0.29 to 2.9 µM) | > 1 | 0.1 to 1
Nc1ncccc1-c1cc(Cc2cccc(OCc3cccc(F)c3)n2)no1 [compound 89, 3-(3-((6-((3-fluorobenzyl)oxy)pyridin-2-yl)methyl)isoxazol-5-yl)pyridin-2-amine] | > 1 | > 1 | > 1
Nc1ncccc1-c1cc(Cc2cccc(OCc3ccccc3F)n2)no1 [compound 90, 3-(3-((6-((2-fluorobenzyl)oxy)pyridin-2-yl)methyl)isoxazol-5-yl)pyridin-2-amine] | 0.1 to 1 (≈ 0.266 to 2.66 µM) | > 1 | > 1

Further lines, with some results ahead:

MIC (Candida albicans 90028) [µg/mL] | Compound | minimal effective concentration [1] [µg/mL] | minimal effective concentration [2] [µg/mL]
> 1 | N#Cc1ccc(COc2ccc(Cc3cc(-c4cccnc4N)on3)cn2)cc1 [compound 76, 4-(((5-((5-(2-aminopyridin-3-yl)isoxazol-3-yl)methyl)pyridin-2-yl)oxy)methyl)benzonitrile] | 0.1 to 1 | 0.1 to 1
> 1 | Nc1ncccc1-c1cc(Cc2ccc(CNCc3ccn[nH]3)cc2)no1 [compound 93, 3-(3-(4-((((1H-pyrazol-5-yl)methyl)amino)methyl)benzyl)isoxazol-5-yl)pyridin-2-amine] | > 1 | > 1
> 1 | N#CCNCc1ccc(Cc2cc(-c3cccnc3N)on2)cc1 [compound 94, 2-((4-((5-(2-aminopyridin-3-yl)isoxazol-3-yl)methyl)benzyl)amino)acetonitrile] | > 1 | > 1
> 1 | Nc1ncccc1-c1cc(Cc2ccc(CNCC3CCOCC3)cc2)no1 [compound 95, 3-(3-(4-((((tetrahydro-2H-pyran-4-yl)methyl)amino)methyl)benzyl)isoxazol-5-yl)pyridin-2-amine] | > 1 | > 1
> 1 | Nc1ncccc1-c1cc(Cc2ccc(CNC3CCCCNC3=O)cc2)no1 (stereo not drawn) [compound 96, 3-((4-((5-(2-aminopyridin-3-yl)isoxazol-3-yl)methyl)benzyl)amino)azepan-2-one] | > 1 | > 1
> 1 | C=Cc1ccc(Cc2cc(-c3cccnc3N)on2)cc1 [compound 97, 3-(3-(4-Vinylbenzyl)isoxazol-5-yl)pyridin-2-amine] | > 1 | 0.1 to 1
0.1 to 1 | Nc1ncccc1-c1cc(Cc2ccc(CCSCCOC=O)cc2)no1 [compound 98, 2-((4-((5-(2-aminopyridin-3-yl)isoxazol-3-yl)methyl)phenethyl)thio)ethyl formate] | > 1 | 0.1 to 1
> 1 | Nc1ncccc1-c1cc(Cc2ccc(Cn3cc(CO)cn3)cc2)no1 [compound 102, (1-(4-((5-(2-aminopyridin-3-yl)isoxazol-3-yl)methyl)benzyl)-1H-pyrazol-4-yl)methanol] | > 1 | > 1
0.1 to 1 (≈ 0.25 to 2.5 µM) | CCCc1cccc(OCc2ccc(Cc3cc(-c4cccnc4N)on3)cc2)c1 [compound 103, 3-(3-(4-((3-propylphenoxy)methyl)benzyl)isoxazol-5-yl)pyridin-2-amine] | > 1 | 0.1 to 1
